Results published in patent US12122785B2, “Substituted pyridines, pyridazines, pyrimidines, and 1,2,4-triazines as TYK2 inhibitors” (Sudo Biosciences Limited, priority 2021, dated 2024).

Key:
[1] = test system: TYK2 pseudokinase (JH2); IL-23-stimulated HEK-Blue IL-23 cells; test: HEK-Blue IL-23 reporter assay (STAT3-inducible SEAP) for profiling TYK2 pseudokinase (JH2) inhibition; format: cell-based; conditions: 10 ng/mL human recombinant IL-23, SEAP readout, read-out: IL23 (TYK2 inhibitory activity, IC50)
Summary of the method: (§1)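 SEAP read-out (QUANTI-Blue) after cytokine stimulation: IL-23 line given 10 ng/mL human IL-23 for 22-24 h; IFNα/β line given 1 ng/mL human IFNα for 16-18 h. Serially diluted compounds added 60 min before cytokine, to cells plated 20-22 h beforehand.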

[2] = test system: TYK2 pseudokinase (JH2); IFNα-stimulated HEK-Blue IFNα/β cells; test: HEK-Blue IFNα/β reporter assay (STAT1-inducible SEAP) for profiling TYK2 pseudokinase (JH2) inhibition; format: cell-based; conditions: 1 ng/mL human recombinant IFNα, SEAP readout, read-out: IFNα (TYK2 inhibitory activity, IC50)
Summary of the method: as §1

TYK2 kinase domain (JH1) = molecular target: T1, TYK2 kinase domain (JH1) (Homo sapiens, UniProt P29597); test: HTRF-based selectivity assay, TYK2 catalytic domain; format: biochemical; conditions: 20 μM ATP
T1 construct: recombinant purified His or GST-tagged catalytic domain for each enzyme; made in house
T1 sequence (P29597 897-1176 limits assumed): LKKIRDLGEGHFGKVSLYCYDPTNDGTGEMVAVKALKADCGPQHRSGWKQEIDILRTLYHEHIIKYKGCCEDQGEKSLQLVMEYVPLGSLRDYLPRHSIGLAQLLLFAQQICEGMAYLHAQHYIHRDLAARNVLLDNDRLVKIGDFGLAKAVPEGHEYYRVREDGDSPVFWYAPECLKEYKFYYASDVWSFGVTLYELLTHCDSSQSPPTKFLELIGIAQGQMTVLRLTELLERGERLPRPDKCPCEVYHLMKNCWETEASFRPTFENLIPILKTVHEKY

JAK1 kinase domain (JH1) = molecular target: T2, JAK1 kinase domain (JH1) (Homo sapiens, UniProt P23458); test: HTRF-based selectivity assay, JAK1 catalytic domain; format: biochemical; conditions: 21.43 μM ATP, read-out: JAK-JHI (IC50)
T2 construct: recombinant purified His or GST-tagged catalytic domain for each enzyme; made in house
Summary of the method: (§2)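 Recombinant His- or GST-tagged JAK catalytic domains (JAK1 80.6, JAK2 2.1, JAK3 171.8 ng/mL) preincubated with compound 5-20 min at RT, then ATP (JAK1 21.43, JAK2 14.7, JAK3 2.12 μM) plus peptide substrate (454.7, 200, 257.4 nM respectively) added. HEPES buffer with MgCl2, 60 min at 26.5 °C; HTRF read-out.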

JAK2 kinase domain (JH1) = molecular target: T3, JAK2 kinase domain (JH1) (Homo sapiens, UniProt O60674); test: HTRF-based selectivity assay, JAK2 catalytic domain; format: biochemical; conditions: 14.7 μM ATP
T3 construct: recombinant purified His or GST-tagged catalytic domain for each enzyme; made in house
Summary of the method: as §2

JAK3 kinase domain (JH1) = molecular target: T4, JAK3 kinase domain (JH1) (Homo sapiens, UniProt P52333); test: HTRF-based selectivity assay, JAK3 catalytic domain; format: biochemical; conditions: 2.12 μM ATP
T4 construct: recombinant purified His or GST-tagged catalytic domain for each enzyme; purchased Carna biosciences 08-046
Summary of the method: as §2

[3] = test system: IL-2-stimulated HEK-Blue IL-2 reporter cells; test: HEK-Blue IL-2 reporter assay (STAT5-inducible SEAP) for determining selectivity; format: cell-based; conditions: 4 ng/mL human recombinant IL-2, 24 hours
Summary of the method: (§3)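 Cells were plated for 20-22 h, then pretreated with serially diluted compound for 60 min. They were stimulated for 24 h with 4 ng/mL human recombinant IL-2 or 50 ng/mL human recombinant IFNγ, and SEAP induction was read with QUANTI-Blue.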

[4] = test system: IFNγ-stimulated HEK-Blue IFNγ reporter cells; test: HEK-Blue IFNγ reporter assay (STAT1-inducible SEAP) for determining selectivity; format: cell-based; conditions: 50 ng/mL human recombinant IFNγ, 24 hours, read-out: IFN-γ SEAP selectivity assay IC50
Summary of the method: as §3

T2 sequence (P23458 875-1153 limits assumed): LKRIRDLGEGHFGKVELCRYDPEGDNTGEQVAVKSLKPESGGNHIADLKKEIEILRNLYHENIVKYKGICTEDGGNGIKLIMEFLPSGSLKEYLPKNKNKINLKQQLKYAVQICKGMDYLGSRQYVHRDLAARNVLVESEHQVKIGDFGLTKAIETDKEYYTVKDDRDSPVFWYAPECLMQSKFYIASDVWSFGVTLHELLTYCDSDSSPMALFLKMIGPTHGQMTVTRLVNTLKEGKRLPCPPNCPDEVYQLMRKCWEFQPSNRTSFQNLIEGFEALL
T3 sequence (O60674 849-1124 limits assumed): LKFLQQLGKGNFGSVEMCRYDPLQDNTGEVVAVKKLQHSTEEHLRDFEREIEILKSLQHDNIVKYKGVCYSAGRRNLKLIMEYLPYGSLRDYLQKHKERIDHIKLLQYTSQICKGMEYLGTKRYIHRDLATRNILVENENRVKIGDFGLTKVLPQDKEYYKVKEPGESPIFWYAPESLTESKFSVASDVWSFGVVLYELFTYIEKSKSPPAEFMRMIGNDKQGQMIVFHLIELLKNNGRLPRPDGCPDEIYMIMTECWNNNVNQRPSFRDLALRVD
T4 sequence (P52333 822-1111 limits assumed): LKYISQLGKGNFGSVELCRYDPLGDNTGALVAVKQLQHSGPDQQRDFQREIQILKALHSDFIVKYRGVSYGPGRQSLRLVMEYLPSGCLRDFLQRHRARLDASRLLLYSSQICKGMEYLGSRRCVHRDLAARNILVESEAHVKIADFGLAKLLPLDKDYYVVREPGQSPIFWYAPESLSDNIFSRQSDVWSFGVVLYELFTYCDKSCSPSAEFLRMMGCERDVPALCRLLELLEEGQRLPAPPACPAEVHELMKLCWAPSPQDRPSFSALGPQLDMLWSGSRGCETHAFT

IC50 (TYK2 kinase domain (JH1)) [nM] | IC50 (JAK1 kinase domain (JH1)) [nM] | IC50 (JAK2 kinase domain (JH1)) [nM] | IC50 (JAK3 kinase domain (JH1)) [nM] | Compound | IC50 [1] [nM] | IC50 [2] [nM] | IC50 [3] [nM] | IC50 [4] [nM]
30 to 300 | < 30 | < 30 | < 30 | CN1Cc2cn(C)nc2-c2cccc(Nc3cc(NC(=O)C4CC4)ncc3C(N)=O)c21 [Compound 17, 6-(cyclopropanecarboxamido)-4-((2,5-dimethyl-4,5-dihydro-2H-pyrazolo[4,3-c]quinolin-6-yl)amino)nicotinamide] | < 30 | < 30 | < 30 | < 30
> 1000 | > 1000 | > 1000 | > 1000 | [2H]C([2H])([2H])NC(=O)c1cnc(Nc2cc(C)nc(C)n2)cc1Nc1cccc2c1N(C)Cc1cn(C)nc1-2 [Compound 16, 4-((2,5-dimethyl-4,5-dihydro-2H-pyrazolo[4,3-c]quinolin-6-yl)amino)-6-((2,6-dimethylpyrimidin-4-yl)amino)-N-(methyl-d3)nicotinamide] | < 30 | < 30 | 300 to 1000 | 30 to 300
> 1000 | > 1000 | > 1000 | > 1000 | [2H]C([2H])([2H])NC(=O)c1cnc(NC(=O)C2CC2)cc1Nc1cccc2c1N(C)Cc1cn(C)nc1-2 [Compound 14, 6-(cyclopropanecarboxamido)-4-((2,5-dimethyl-4,5-dihydro-2H-pyrazolo[4,3-c]quinolin-6-yl)amino)-N-(methyl-d3)nicotinamide] | < 30 | < 30 | > 1000 | 300 to 1000
